Data published in PubChem BioAssay (NCI).
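Cells were grown in 96-well plates and exposed to each compound for 48 hours at five concentrations; endpoints were interpolated linearly between bracketing concentrations, or set to the highest concentration if not reached. GI50: concentration for 50% inhibition of growth. TGI is the concentration that stops growth completely.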

Experiments:
Test in all cases: NCI tumour cell line growth inhibition, 48 h
786-0 renal = system: 786-0 renal
ACHN renal = system: ACHN renal
HT29 colon = system: HT29 colon
KM12 colon = system: KM12 colon
M14 melanoma = system: M14 melanoma
MALME-3M melanoma = system: MALME-3M melanoma
SK-OV-3 ovarian = system: SK-OV-3 ovarian
SNB-75 CNS = system: SNB-75 CNS
UACC-257 melanoma = system: UACC-257 melanoma
IGROV1 ovarian = system: IGROV1 ovarian

| Compound | TGI (786-0 renal) | TGI (ACHN renal) | TGI (HT29 colon) | TGI (KM12 colon) | TGI (M14 melanoma) | TGI (MALME-3M melanoma) | TGI (SK-OV-3 ovarian) | TGI (SNB-75 CNS) | TGI (UACC-257 melanoma) | GI50 (ACHN renal) | GI50 (KM12 colon) | GI50 (SK-OV-3 ovarian) | GI50 (SNB-75 CNS) | GI50 (UACC-257 melanoma) | TGI (IGROV1 ovarian) | GI50 (HT29 colon) | GI50 (IGROV1 ovarian) | GI50 (M14 melanoma) | GI50 (MALME-3M melanoma) |
| --- | --- | --- | --- | --- | --- | --- | --- | --- | --- | --- | --- | --- | --- | --- | --- | --- | --- | --- | --- |
| COc1ccccc1N1C(=O)CSC1c1cccc(Oc2ccccc2)c1 (stereo unspecified) | 32.5 µM | 38.2 µM | 46.7 µM | 75.6 µM | 33.5 µM | 30.6 µM | > 100 µM | 41.7 µM | 33.6 µM | – | – | – | – | – | – | – | – | – | – |
| COC1=CC(c2ccc[nH]2)=N/C1=C\c1[nH]c(C)c(CC(=O)NCc2ccccc2)c1C | – | 3.28 µM | – | 2.59 µM | – | – | 3.39 µM | 2.89 µM | 3.17 µM | 1.75 µM | 1.12 µM | 1.87 µM | 1.51 µM | 1.72 µM | – | – | – | – | – |
| Brc1ccc2nc(-c3cccs3)nc(N3CCN(c4ccccc4)CC3)c2c1 | > 100 µM | > 100 µM | > 100 µM | > 100 µM | > 100 µM | > 100 µM | > 100 µM | > 100 µM | > 100 µM | – | – | – | – | – | > 100 µM | – | – | – | – |
| CCOC(=O)NC(=O)c1cn(CCN(CCO)C(=O)NCCCCCCNC(=O)N(CCO)CCn2cc(C(=O)NC(=O)OCC)c(=O)[nH]c2=O)c(=O)[nH]c1=O | – | – | > 100 µM | > 100 µM | – | > 100 µM | – | > 100 µM | > 100 µM | – | – | – | – | – | > 100 µM | – | – | – | – |
| NS(=O)(=O)c1ccc(N=Nc2ccc(O)cc2)cc1 | > 100 µM | > 100 µM | > 100 µM | > 100 µM | > 100 µM | > 100 µM | > 100 µM | 88.9 µM | > 100 µM | – | – | – | – | – | > 100 µM | – | – | – | – |
| CC1=C/C(=N\NS(=O)(=O)c2ccc([N+](=O)[O-])cc2)CC(C)(C)C1 | > 100 µM | > 100 µM | – | > 100 µM | > 100 µM | > 100 µM | > 100 µM | – | > 100 µM | – | – | – | – | – | > 100 µM | – | – | – | – |
| N#CC1(C#N)C(=O)c2ccncc2C1=O | – | > 100 µM | > 100 µM | > 100 µM | > 100 µM | > 100 µM | > 100 µM | > 100 µM | > 100 µM | – | – | – | – | – | > 100 µM | – | – | – | – |
| COc1cc(-c2n/c(=C\c3c(O)[nH]c4ccccc34)cc3c2=Nc2ccccc2-3)ccc1F | – | 35.2 µM | 16.1 µM | > 100 µM | 22.3 µM | 23.2 µM | 43.5 µM | 63.6 µM | 40 µM | 8.09 µM | 7.7 µM | 17.1 µM | 16.2 µM | 15 µM | 48.9 µM | 4.02 µM | 10.3 µM | 5.2 µM | 4.38 µM |
| CN(CCO)CCC1COc2ccccc2O1 (stereo unspecified) | – | > 10 µM | > 10 µM | > 10 µM | > 10 µM | > 10 µM | > 10 µM | > 10 µM | – | – | – | – | – | – | > 10 µM | – | – | – | – |
| O=C(CSc1nc2ccc(I)cc2c(=O)n1Cc1ccccc1)NNC(=S)Nc1ccccc1 | > 100 µM | > 100 µM | > 100 µM | > 100 µM | > 100 µM | – | > 100 µM | > 100 µM | 98.7 µM | – | – | – | – | – | – | – | – | – | – |
| COc1c(O)cc2c(c1O)C(=O)C(Cc1ccc(O)cc1)CO2 (stereo unspecified) | > 100 µM | > 100 µM | > 100 µM | > 100 µM | > 100 µM | > 100 µM | > 100 µM | 91.9 µM | > 100 µM | – | – | – | – | – | > 100 µM | – | – | – | – |
| O=C([O-])c1ccccc1Nc1ccccc1C(=O)[O-].[OH3+].[Zn+2] | 57.7 µM | > 100 µM | > 100 µM | > 100 µM | > 100 µM | 50.5 µM | 39 µM | 37.2 µM | 21.5 µM | – | – | – | – | – | 18.8 µM | – | – | – | – |
